Like-named read-outs stand apart in the source and are kept apart here.
Tests used:
domestic flies [1] = assay: Insecticidal activity, large-scale test in living and industrial premises; type: in vivo; conditions: 0.25% solution with 5% glucose solution, 2-3 dishes per 20 m2; 72 hours
Protocol: The large-scale tests of the activity of the insecticidal composition, according to the invention, was conducted on domestic flies in living and industrial premises. Petri dishes containing a 0.25% aqueous solution of the insecticide, according to the invention, added with a 5% glucose solution, were put at a rate of 2-3 dishes per 20 m2. The .activity of the composition of the invention was estimated by a direct count of dead insects in 72 hours or by using the adhesive tapes, counting the number of flies on the tape prior and after carrying out the test.

domestic flies [2] = assay: Insecticidal activity, laboratory test in gauze boxes; type: in vivo; conditions: 0.25% solution in 5% aqueous glucose solution; death rate estimated in 48 - 72 hours
Protocol: An insecticidal composition based thereon, which was a 0.25% solution of this compound in a 5% aqueous glucose solution, was prepared. The laboratory and large-scale tests of the activity of an insecticidal composition of the invention was conducted on domestic flies. for laboratory tests into the gauze-made boxes (10x10 cm, 6 boxes), there were placed 6-7-day flies of both sexes by 50 individuals per each box. Into 5 boxes there were placed Petri dishes containing the insecticidal composition of the invention. The death rate of flies was estimated-in 48 - 72 hours. A Petri dish containing a 5% aqueous solution of glucose was placed into the control box. The insecticidal activity of the composition, according to the invention, was tested in comparison with a known insecticidal composition containing 0,0-dimethyl-/1-hydroay-2,2-trichloroethyl/phosphonate.

[3] = Solubility in water and organic solvents; type: physicochemical; conditions: qualitative, solvents named
influenza A virus [4] = test system: influenza A virus
hepatitis B virus [5] = test system: hepatitis B virus
Verticillium albo-atrum [6] = assay: Fungicidal activity, laboratory test on potato-dextrose agar; type: cell-based; conditions: 0.01 % by mass of active principle
Protocol: (§1) Based on the compound, a fungicidal composition was prepared in the form of a 0.01% solution thereof in distilled water. A fungicidal activity of the compound, according to the invention, was tested for inhibition of vegetative fungi growth such as Fusarium oxyporum, Fusarium moniliforme, Botrytis cinerea, Fusarium culmorum, Diplodia zeae, Rhyzoctonia violacea, Verticillium alboartrum, Verturia inaequalis, Rhyzoctonia aderholdii affecting potato, sugar beet, cotton seeds. The tests were conducted either in laboratory or in field conditions. For tests, the composition of the invention containing-0.01 % by mass of an active principle was introduced into Petri dishes with a nutrient medium, specifically, potato-dextrose agar. The phytopathogenic fungi mycelium was plated on the Petri dishes with this agar culture. The phytopathogenic fungi were plated on control dishes with agar culture without adding the composition of the invention. The fungicidal action of the composition, according to the invention, was tested in comparison with the known fungicidal composition based on 2,3-dichloronaphthoquinone-1,4 (phygon), zinc N,N'-ethylene-bis-(dithiocarbamate) (zineb) and thiuram.

Fusarium oxysporum [7] = assay: as above; type: cell-based; conditions: 0.01 % by mass of active principle
Protocol: as §1

Diplodia zeae [8] = assay: as above; type: cell-based; conditions: 0.01 % by mass of active principle
Protocol: as §1

Rhyzoctonia aderholdii [9] = assay: as above; type: cell-based; conditions: 0.01 % by mass of active principle
Protocol: as §1

Rhyzoctonia violacea [10] = assay: as above; type: cell-based; conditions: 0.01 % by mass of active principle
Protocol: as §1

Botrytis cinerea [11] = assay: as above; type: cell-based; conditions: 0.01 % by mass of active principle
Protocol: as §1

Verturia inaequalis [12] = assay: as above; type: cell-based; conditions: 0.01 % by mass of active principle
Protocol: as §1

Fusarium moniliforme [13] = assay: as above; type: cell-based; conditions: 0.01 % by mass of active principle
Protocol: as §1

Fusarium culmorum [14] = assay: as above; type: cell-based; conditions: 0.01 % by mass of active principle
Protocol: as §1

Fusarium oxysporum [15] = assay: Fungicidal activity, field test on sprayed potato plots; type: in vivo
Protocol: (§2) In the field conditions potato plantations of 5 m^2 in size affected by Fusarium oxysporem, Fusarium moniliforme, Betrytis cinerea, Fusarium culmorum, Diplodia Verturia inaequalis, Rhyzoctonia aderholdii were sprayed by a fungicidal composition of the. invention.
(§3) For comparison, a similar spraying of the affected potato-plots was carried out using a. known fungicidal compositions.

Diplodia zeae [16] = assay: as above; type: in vivo
Protocol: as §2, §3

Rhyzoctonia aderholdii [17] = assay: as above; type: in vivo
Protocol: as §2, §3

Botrytis cinerea [18] = assay: as above; type: in vivo
Protocol: as §2, §3

Verturia inaequalis [19] = assay: as above; type: in vivo
Protocol: as §2, §3

Fusarium moniliforme [20] = assay: as above; type: in vivo
Protocol: as §2, §3

Fusarium culmorum [21] = assay: as above; type: in vivo
Protocol: as §2, §3

Verticillium albo-atrum [22] = assay: as above; type: in vivo
Rhyzoctonia violacea [23] = assay: as above; type: in vivo
hepatitis B virus [24] = assay: Virucidal activity, suspension method under protein loading, counter-current immunoelectrophoresis
influenza A virus [25] = assay: microbe, parasite or virus in culture; set-up: species or system strain of influenza A1 virus
poliomyelitis virus = assay: microbe, parasite or virus in culture; type: cell-based, poliomyelitis-II virus

Row | SMILES | solubility [3] | Inhibition of colony growth of phytopathogenic fungi,% Verticillium albo-atrum laboratory (Verticillium albo-atrum [6]) [%] | Inhibition of colony growth of phyto-pathogenic fungi, % Fusarium oxysporum laboratory (Fusarium oxysporum [7]) [%] | Inhibition of colony growth of phytopatogenic,fungi,% Diplidia zeae laboratory (Diplodia zeae [8]) [%] | Inhibition of colony growth of phytopathogenic fungi,% Rhyzoctonia aderholdii laboratory (Rhyzoctonia aderholdii [9]) [%] | Inhibition of colony growth of phytopatogenic,fungi,% Rhyzoctonia violacea laboratory (Rhyzoctonia violacea [10]) [%] | Inhibition of colony growth of phyto-pathogenic fungi, % Botrytis cinerea laboratory (Botrytis cinerea [11]) [%] | Inhibition of colony growth of phytopathogenic fungi,% Verturia inaequalis laboratory (Verturia inaequalis [12]) [%] | Inhibition of colony growth of phyto-pathogenic fungi, % Fusarium moniliforme laboratory (Fusarium moniliforme [13]) [%] | Inhibition of colony growth of phytopatogenic,fungi,% Fusarium culmorum laboratory (Fusarium culmorum [14]) [%] | Inhibition of colony growth of phyto-pathogenic fungi, % Fusarium oxysporum field (Fusarium oxysporum [15]) [%] | Inhibition of colony growth of phytopatogenic,fungi,% Diplidia zeae field (Diplodia zeae [16]) [%] | Inhibition of colony growth of phytopathogenic fungi,% Rhyzoctonia aderholdii field (Rhyzoctonia aderholdii [17]) [%] | Inhibition of colony growth of phyto-pathogenic fungi, % Botrytis cinerea field (Botrytis cinerea [18]) [%] | Inhibition of colony growth of phytopathogenic fungi,% Verturia inaequalis field (Verturia inaequalis [19]) [%] | Inhibition of colony growth of phyto-pathogenic fungi, % Fusarium moniliforme field (Fusarium moniliforme [20]) [%] | Inhibition of colony growth of phytopatogenic,fungi,% Fusarium culmorum field (Fusarium culmorum [21]) [%] | Inhibition of colony growth of phytopathogenic fungi,% Verticillium albo-atrum field (Verticillium albo-atrum [22]) [%] | Inhibition of colony growth of phytopatogenic,fungi,% Rhyzoctonia violacea field (Rhyzoctonia violacea [23]) [%] | also measured
1 | O=C(N=P(OCCCl)(OCCCl)OCCCl)c1ccccc1 [Example 1, tris-(2-chloroethoxy)phosphazobenzoyl] | soluble in water, alcohols, toluene | – | – | – | – | – | – | – | – | – | – | – | – | – | – | – | – | – | – | Death of flies, % Tests large-scale (domestic flies [1]): 85%; Death of flies, % Tests laboratory (domestic flies [2]): 86%
2 | CC(C)(OP(=NC(=O)c1ccccc1)(OC(C)(C)C(Cl)(Cl)Cl)OC(C)(C)C(Cl)(Cl)Cl)C(Cl)(Cl)Cl [Example 2, tris-(dimethyl-2,2,2-trichloroethoxy)phosphazobenzoyl] | soluble in water, alcohols, acetone, benzene, toluene | – | – | – | – | – | – | – | – | – | – | – | – | – | – | – | – | – | – | Death of flies, % Tests large-scale (domestic flies [1]): 88%; Death of flies, % Tests laboratory (domestic flies [2]): 90%
3 | O=C(N=P(OC[C@@H](NC(=O)C(Cl)Cl)[C@H](O)c1ccc([N+](=O)[O-])cc1)(OC[C@@H](NC(=O)C(Cl)Cl)[C@H](O)c1ccc([N+](=O)[O-])cc1)OC[C@@H](NC(=O)C(Cl)Cl)[C@H](O)c1ccc([N+](=O)[O-])cc1)c1ccccc1 [Example 4, tris-d/-/-threo-3-para nitrophenyl--2-dichloroacetamido-3-hydroxypropoxy/phosphazobenzoyl] | – | – | – | – | – | – | – | – | – | – | – | – | – | – | – | – | – | – | – | inhibition of viral antigen titers, Influenza A virus (influenza A virus [4]; 1% solution): 100; inhibition of viral antigen titers, Hepatitis B virus (hepatitis B virus [5]; 1% solution in 0.85% sodium chloride, exposure 5, 30, 60 minutes): 100
4 | O=C(N=P(Nc1ccc(Cl)cc1[N+](=O)[O-])(Nc1ccc(Cl)cc1[N+](=O)[O-])Nc1ccc(Cl)cc1[N+](=O)[O-])c1ccc(Br)cc1 [Example 6, tris--(para-chloro -ortho-nitroanilido)phosphazo-para-bromobenzoyl] | soluble in water, acetone, alcohols, benzene | 100 | 100 | 100 | 100 | 100 | 100 | 100 | 100 | 70 | 100 | 100 | 100 | 100 | 100 | 100 | 69 | 100 | 100 | –
5 | O=C1C(Cl)=C(Cl)C(=O)c2ccccc21 [phygon, 2,3-dichloronaphthoquinone-1,4] | – | 63 | 35 | 71 | 54 | 34 | 38 | 58 | 35 | 57 | 30 | 81 | 55 | 32 | 61 | 32 | 45 | 66 | 33 | –
6 | O=S(=O)(NCl)c1ccccc1.[Na] [sodium-N-chloro-benzene sulf-amide, sodium N-chlorobenzene sulphonamide] | – | – | – | – | – | – | – | – | – | – | – | – | – | – | – | – | – | – | – | inhibition of viral antigen titers, Influenza A virus (influenza A virus [4]): 50; inhibition of viral antigen titers, Hepatitis B virus (hepatitis B virus [5]): 50; killing at 1 % (hepatitis B virus [24]; 0.25 h, read-out: Death of viruses (%) under exposure, Hepatitis B, 15 min): 0%; killing at 1 % (hepatitis B virus [24]; 0.5 h, read-out: Death of viruses (%) under exposure, Hepatitis B, 30 min): 12.5%; killing at 1 % (hepatitis B virus [24]; 1 h, read-out: Death of viruses (%) under exposure, Hepatitis B, 60 min): 25%; killing at 1 % (influenza A virus [25]; 0.25 h, read-out: Death of viruses (%) under exposure, Influenza A, 15 min): 0%; killing at 1 % (influenza A virus [25]; 0.5 h, read-out: Death of viruses (%) under exposure, Influenza A, 30 min): 12.5%; killing at 1 % (influenza A virus [25]; 1 h, read-out: Death of viruses (%) under exposure, Influenza A, 60 min): 25%; killing at 1 % (poliomyelitis virus; 10 min, read-out: Death of viruses (%) under exposure, Poliomyelitis, 10 min): 0%; killing at 1 % (poliomyelitis virus; 0.5 h, read-out: Death of viruses (%) under exposure, Poliomyelitis, 30 min): 12.5%; killing at 1 % (poliomyelitis virus; 1 h, read-out: Death of viruses (%) under exposure, Poliomyelitis, 60 min): 25%
7 | S=C([S-])NCCNC(=S)[S-].[Zn+2] [zineb, zinc N,N'-ethylene-bis-(dithiocarbamate)] | – | 80 | 58 | 100 | 100 | 100 | 100 | 100 | 60 | 57 | 59 | 100 | 100 | 98 | 98 | 62 | 54 | 78 | 100 | –
